According to PubChem BioAssay (NCI):
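Where inhibition never reached the appropriate level, the endpoint shown equals the highest concentration tested. Otherwise, values were interpolated linearly from a five-concentration, 48-hour dose response in 96-well plates. Abbreviation: GI50, concentration required for 50% inhibition of growth. TGI: concentration producing complete growth inhibition.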

Tests used:
Assay in all cases: inhibition of tumour cell growth, NCI panel, 48 h
DU-145 prostate = system: DU-145 prostate
SK-MEL-5 melanoma = system: SK-MEL-5 melanoma
K-562 leukemia = system: K-562 leukemia
A549 NSCLC = system: A549 NSCLC
SK-MEL-2 melanoma = system: SK-MEL-2 melanoma
HOP-62 NSCLC = system: HOP-62 NSCLC
SNB-19 CNS = system: SNB-19 CNS
ACHN renal = system: ACHN renal
OVCAR-3 ovarian = system: OVCAR-3 ovarian
UACC-62 melanoma = system: UACC-62 melanoma
SN12C renal = system: SN12C renal
MCF7 breast = system: MCF7 breast
RXF 393 renal = system: RXF 393 renal
HCT-116 colon = system: HCT-116 colon
A498 renal = system: A498 renal
SK-MEL-28 melanoma = system: SK-MEL-28 melanoma
SF-295 CNS = system: SF-295 CNS
SF-268 CNS = system: SF-268 CNS
UACC-257 melanoma = system: UACC-257 melanoma
CCRF-CEM leukemia = system: CCRF-CEM leukemia
OVCAR-5 ovarian = system: OVCAR-5 ovarian
KM12 colon = system: KM12 colon
SF-539 CNS = system: SF-539 CNS
TK-10 renal = system: TK-10 renal
NCI-H460 lung = system: NCI-H460 lung
CAKI-1 renal = system: CAKI-1 renal
NCI/ADR-RES ovarian = system: NCI/ADR-RES ovarian
UO-31 renal = system: UO-31 renal
MOLT-4 leukemia = system: MOLT-4 leukemia
NCI-H226 lung = system: NCI-H226 lung
HOP-92 NSCLC = system: HOP-92 NSCLC
MDA-MB-468 breast = system: MDA-MB-468 breast
SNB-75 CNS = system: SNB-75 CNS
LOX IMVI melanoma = system: LOX IMVI melanoma
IGROV1 ovarian = system: IGROV1 ovarian
BT-549 breast = system: BT-549 breast
SW-620 colon = system: SW-620 colon
U251 CNS = system: U251 CNS
HS 578T breast = system: HS 578T breast
MDA-MB-231 breast = system: MDA-MB-231 breast
MALME-3M melanoma = system: MALME-3M melanoma
RPMI-8226 leukemia = system: RPMI-8226 leukemia
T-47D breast = system: T-47D breast
NCI-H522 lung = system: NCI-H522 lung
M14 melanoma = system: M14 melanoma
HT29 colon = system: HT29 colon
HCT-15 colon = system: HCT-15 colon
HL-60(TB) leukemia = system: HL-60(TB) leukemia
MDA-MB-435 = system: MDA-MB-435
EKVX NSCLC = system: EKVX NSCLC
OVCAR-8 ovarian = system: OVCAR-8 ovarian
SK-OV-3 ovarian = system: SK-OV-3 ovarian
OVCAR-4 ovarian = system: OVCAR-4 ovarian
NCI-H23 lung = system: NCI-H23 lung
PC-3 prostate = system: PC-3 prostate
HCC-2998 colon = system: HCC-2998 colon
COLO 205 colon = system: COLO 205 colon
786-0 renal = system: 786-0 renal

Structure (SMILES): CN(C)CCOc1ccc(C(=O)C2[C@H](c3ccc(Cl)cc3)[C@@H](c3ccccc3)NC23C(=O)Nc2ccccc23)cc1 (stereo partly specified)
- GI50 (DU-145 prostate): 5.78 µM
- TGI (DU-145 prostate): > 18.5 µM
- GI50 (SK-MEL-5 melanoma): 3.11 µM
- TGI (SK-MEL-5 melanoma): 5.99 µM
- GI50 (K-562 leukemia): 3.86 µM
- TGI (K-562 leukemia): 11.7 µM
- GI50 (A549 NSCLC): 5.95 µM
- TGI (A549 NSCLC): > 18.5 µM
- GI50 (SK-MEL-2 melanoma): 3.6 µM
- TGI (SK-MEL-2 melanoma): 7.11 µM
- GI50 (HOP-62 NSCLC): 6.6 µM
- TGI (HOP-62 NSCLC): > 18.5 µM
- GI50 (SNB-19 CNS): 8.07 µM
- TGI (SNB-19 CNS): > 18.5 µM
- GI50 (ACHN renal): 4.33 µM
- TGI (ACHN renal): 11.7 µM
- GI50 (OVCAR-3 ovarian): 3.41 µM
- TGI (OVCAR-3 ovarian): 7.55 µM
- GI50 (UACC-62 melanoma): 2880 nM
- TGI (UACC-62 melanoma): 5.59 µM
- GI50 (SN12C renal): 10.6 µM
- TGI (SN12C renal): > 18.5 µM
- GI50 (MCF7 breast): 3.18 µM
- TGI (MCF7 breast): 6.32 µM
- GI50 (RXF 393 renal): 2880 nM
- TGI (RXF 393 renal): 12 µM
- GI50 (HCT-116 colon): 2960 nM
- TGI (HCT-116 colon): 5.51 µM
- GI50 (A498 renal): > 18.5 µM
- TGI (A498 renal): > 18.5 µM
- GI50 (SK-MEL-28 melanoma): 3.05 µM
- TGI (SK-MEL-28 melanoma): 5.62 µM
- GI50 (SF-295 CNS): 3.22 µM
- TGI (SF-295 CNS): 6.52 µM
- GI50 (SF-268 CNS): 9.62 µM
- TGI (SF-268 CNS): > 18.5 µM
- GI50 (UACC-257 melanoma): 3.38 µM
- TGI (UACC-257 melanoma): 7.54 µM
- GI50 (CCRF-CEM leukemia): 3.98 µM
- TGI (CCRF-CEM leukemia): 13.2 µM
- GI50 (OVCAR-5 ovarian): 4.41 µM
- TGI (OVCAR-5 ovarian): > 18.5 µM
- GI50 (KM12 colon): 3.56 µM
- TGI (KM12 colon): 7.3 µM
- GI50 (SF-539 CNS): 3.14 µM
- TGI (SF-539 CNS): 6.01 µM
- GI50 (TK-10 renal): > 18.5 µM
- TGI (TK-10 renal): > 18.5 µM
- GI50 (NCI-H460 lung): 3.29 µM
- TGI (NCI-H460 lung): 6.17 µM
- GI50 (CAKI-1 renal): 4.5 µM
- TGI (CAKI-1 renal): > 18.5 µM
- GI50 (NCI/ADR-RES ovarian): 5.9 µM
- TGI (NCI/ADR-RES ovarian): > 18.5 µM
- GI50 (UO-31 renal): 6.9 µM
- TGI (UO-31 renal): > 18.5 µM
- GI50 (MOLT-4 leukemia): 3.3 µM
- TGI (MOLT-4 leukemia): 8.62 µM
- GI50 (NCI-H226 lung): 7.97 µM
- TGI (NCI-H226 lung): > 18.5 µM
- GI50 (HOP-92 NSCLC): 3.03 µM
- TGI (HOP-92 NSCLC): 12.7 µM
- GI50 (MDA-MB-468 breast): 2910 nM
- TGI (MDA-MB-468 breast): 5.74 µM
- GI50 (SNB-75 CNS): 4.58 µM
- TGI (SNB-75 CNS): > 18.5 µM
- GI50 (LOX IMVI melanoma): 2620 nM
- TGI (LOX IMVI melanoma): 5.02 µM
- GI50 (IGROV1 ovarian): 10.4 µM
- TGI (IGROV1 ovarian): > 18.5 µM
- GI50 (BT-549 breast): > 18.5 µM
- TGI (BT-549 breast): > 18.5 µM
- GI50 (SW-620 colon): 3.13 µM
- TGI (SW-620 colon): 6.05 µM
- GI50 (U251 CNS): 3.13 µM
- TGI (U251 CNS): 6.07 µM
- GI50 (HS 578T breast): 3.88 µM
- TGI (HS 578T breast): > 18.5 µM
- GI50 (MDA-MB-231 breast): 3.55 µM
- TGI (MDA-MB-231 breast): 10.2 µM
- GI50 (MALME-3M melanoma): 2920 nM
- TGI (MALME-3M melanoma): 5.48 µM
- GI50 (RPMI-8226 leukemia): 3.95 µM
- TGI (RPMI-8226 leukemia): 11.3 µM
- GI50 (T-47D breast): 9.41 µM
- TGI (T-47D breast): > 18.5 µM
- GI50 (NCI-H522 lung): 7.52 µM
- TGI (NCI-H522 lung): > 18.5 µM
- GI50 (M14 melanoma): 2890 nM
- TGI (M14 melanoma): 5.69 µM
- GI50 (HT29 colon): 3.32 µM
- TGI (HT29 colon): 7.13 µM
- GI50 (HCT-15 colon): 3.68 µM
- TGI (HCT-15 colon): 8.25 µM
- GI50 (HL-60(TB) leukemia): 4.11 µM
- TGI (HL-60(TB) leukemia): 11.2 µM
- GI50 (MDA-MB-435): 3.04 µM
- TGI (MDA-MB-435): 5.99 µM
- GI50 (EKVX NSCLC): 3.03 µM
- TGI (EKVX NSCLC): 6.21 µM
- GI50 (OVCAR-8 ovarian): 4.56 µM
- TGI (OVCAR-8 ovarian): 11 µM
- GI50 (SK-OV-3 ovarian): > 18.5 µM
- TGI (SK-OV-3 ovarian): > 18.5 µM
- GI50 (OVCAR-4 ovarian): 8.79 µM
- TGI (OVCAR-4 ovarian): > 18.5 µM
- GI50 (NCI-H23 lung): 3.95 µM
- TGI (NCI-H23 lung): 9.94 µM
- GI50 (PC-3 prostate): 3.77 µM
- TGI (PC-3 prostate): 11.2 µM
- GI50 (HCC-2998 colon): 3.07 µM
- TGI (HCC-2998 colon): 5.76 µM
- GI50 (COLO 205 colon): 3.58 µM
- TGI (COLO 205 colon): 6.93 µM
- GI50 (786-0 renal): 3.14 µM
- TGI (786-0 renal): 5.83 µM
